In patent US11497212B2, “Substituted thiophenyl uracils, salts thereof and the use thereof as herbicidal agents” (Syngenta Crop Protection AG, priority 2017, dated 2022):

Columns and labels:
Assay type in all cases: in vivo
Triticum aestivum = experiment: Crop compatibility post-emergence (greenhouse pot trial)
Experimental: (§1) Seeds of mono- and dicotyledonous weed plants and crop plants are laid out in sandy loam soil in plastic or wood-fiber pots, covered with earth and grown under controlled growth conditions in a greenhouse. 2 to 3 weeks after sowing, the trial plants are treated at the one-leaf stage. The compounds of the invention formulated in the form of wettable powders (WP) or emulsion concentrates (EC) were then sprayed onto the green parts of the plant as an aqueous suspension or emulsion with addition of 0.5% additive at a water application rate equivalent to 600 L/ha. After the trial plants had stood for about 3 weeks in the greenhouse, under optimal growth conditions, the effect of the preparations was scored visually by comparison with untreated controls. For example, 100% efficacy=plants have died, 0% efficacy=like control plants.
(§2) Crop plant compatibilities were also scored correspondingly.
(§3) The effects observed are reported here on selected crop plants by comparison with the untreated controls (values in %).

Echinochloa crus-galli = experiment: Herbicidal action post-emergence (greenhouse pot trial); conditions: application rate 20 g/ha, scored visually after about 3 weeks vs untreated controls
Experimental: as §1, with “plants. Tables A1 to A15 below show the efficacies of selected compounds of the general formula (I) according to tables I.1 to I.60 on various harmful plants and an application rate corresponding to 80 g/ha or lower that were obtained by the aforementioned trial method.” for “plants.”

Pharbitis purpurea = experiment: as above; conditions: application rate 20 g/ha
Experimental: as §1, with “plants. Tables A1 to A15 below show the efficacies of selected compounds of the general formula (I) according to tables I.1 to I.60 on various harmful plants and an application rate corresponding to 80 g/ha or lower that were obtained by the aforementioned trial method.” for “plants.”

Digitaria sanguinalis = experiment: as above; conditions: application rate 20 g/ha
Experimental: as §1, with “plants. Tables A1 to A15 below show the efficacies of selected compounds of the general formula (I) according to tables I.1 to I.60 on various harmful plants and an application rate corresponding to 80 g/ha or lower that were obtained by the aforementioned trial method.” for “plants.”

Setaria viridis = experiment: as above; conditions: application rate 20 g/ha, scored visually after about 3 weeks vs untreated controls
Experimental: as §1, with “plants. Tables A1 to A15 below show the efficacies of selected compounds of the general formula (I) according to tables I.1 to I.60 on various harmful plants and an application rate corresponding to 80 g/ha or lower that were obtained by the aforementioned trial method.” for “plants.”

Matricaria inodora = experiment: as above; conditions: application rate 20 g/ha, scored visually after about 3 weeks vs untreated controls
Experimental: as §1, with “plants. Tables A1 to A15 below show the efficacies of selected compounds of the general formula (I) according to tables I.1 to I.60 on various harmful plants and an application rate corresponding to 80 g/ha or lower that were obtained by the aforementioned trial method.” for “plants.”

Abutilon theophrasti = experiment: as above; conditions: application rate 20 g/ha, scored visually after about 3 weeks vs untreated controls
Experimental: as §1, with “plants. Tables A1 to A15 below show the efficacies of selected compounds of the general formula (I) according to tables I.1 to I.60 on various harmful plants and an application rate corresponding to 80 g/ha or lower that were obtained by the aforementioned trial method.” for “plants.”

Polygonum convolvulus = experiment: as above; conditions: application rate 20 g/ha, scored visually after about 3 weeks vs untreated controls
Experimental: as §1, with “plants. Tables A1 to A15 below show the efficacies of selected compounds of the general formula (I) according to tables I.1 to I.60 on various harmful plants and an application rate corresponding to 80 g/ha or lower that were obtained by the aforementioned trial method.” for “plants.”

Viola tricolor = experiment: as above; conditions: application rate 20 g/ha
Experimental: as §1, with “plants. Tables A1 to A15 below show the efficacies of selected compounds of the general formula (I) according to tables I.1 to I.60 on various harmful plants and an application rate corresponding to 80 g/ha or lower that were obtained by the aforementioned trial method.” for “plants.”

Amaranthus retroflexus = experiment: as above; conditions: application rate 20 g/ha, scored visually after about 3 weeks vs untreated controls
Experimental: as §1, with “plants. Tables A1 to A15 below show the efficacies of selected compounds of the general formula (I) according to tables I.1 to I.60 on various harmful plants and an application rate corresponding to 80 g/ha or lower that were obtained by the aforementioned trial method.” for “plants.”

Veronica persica = experiment: as above; conditions: application rate 20 g/ha
Experimental: as §1, with “plants. Tables A1 to A15 below show the efficacies of selected compounds of the general formula (I) according to tables I.1 to I.60 on various harmful plants and an application rate corresponding to 80 g/ha or lower that were obtained by the aforementioned trial method.” for “plants.”

Stellaria media = experiment: as above; conditions: application rate 20 g/ha, scored visually after about 3 weeks vs untreated controls
Experimental: as §1, with “plants. Tables A1 to A15 below show the efficacies of selected compounds of the general formula (I) according to tables I.1 to I.60 on various harmful plants and an application rate corresponding to 80 g/ha or lower that were obtained by the aforementioned trial method.” for “plants.”

Oryza sativa = experiment: Crop compatibility post-emergence (greenhouse pot trial)
Experimental: as §1, §2, §3

## CC(Sc1cc(-n2c(=O)cc(C(F)(F)F)n(C)c2=O)c(F)cc1Cl)C(=O)OCCOC(F)(F)F (stereo not shown) [I.1-41]
Triticum aestivum; application rate 20 g/ha
  Triticum aestivum (Efficacy in %): 20%
Echinochloa crus-galli
  Echinochloa crus-galli (Efficacy in %): 100%
Pharbitis purpurea
  Pharbitis purpurea (Efficacy in %): 100%
Digitaria sanguinalis
  Digitaria sanguinalis (Efficacy in %): 100%
Setaria viridis
  Setaria viridis (Efficacy in %): 100%
Matricaria inodora
  Matricaria inodora (Efficacy in %): 90%
Abutilon theophrasti
  Abutilon theophrasti (Efficacy in %): 100%
Polygonum convolvulus
  Polygonum convolvulus (Efficacy in %): 100%
Viola tricolor
  Viola tricolor (Efficacy in %): 100%
Amaranthus retroflexus
  Amaranthus retroflexus (Efficacy in %): 100%
Veronica persica
  Veronica persica (Efficacy in %): 100%

## CC(Sc1cc(-n2c(=O)cc(C(F)(F)F)n(C)c2=O)c(F)cc1Cl)C(=O)OC1CCSC1 (stereo not shown) [I.1-123]
Triticum aestivum; application rate 20 g/ha
  Triticum aestivum (Efficacy in %): 20%
Echinochloa crus-galli
  Echinochloa crus-galli (Efficacy in %): 100%
Pharbitis purpurea
  Pharbitis purpurea (Efficacy in %): 100%
Digitaria sanguinalis
  Digitaria sanguinalis (Efficacy in %): 80%
Setaria viridis
  Setaria viridis (Efficacy in %): 100%
Matricaria inodora
  Matricaria inodora (Efficacy in %): 100%
Abutilon theophrasti
  Abutilon theophrasti (Efficacy in %): 100%
Polygonum convolvulus
  Polygonum convolvulus (Efficacy in %): 100%
Viola tricolor
  Viola tricolor (Efficacy in %): 100%
Stellaria media
  Stellaria media (Efficacy in %): 100%
Amaranthus retroflexus
  Amaranthus retroflexus (Efficacy in %): 100%
Veronica persica
  Veronica persica (Efficacy in %): 100%

## CC(Sc1cc(-n2c(=O)cc(C(F)(F)F)n(C)c2=O)c(F)cc1Cl)C(=O)NCC1CCCCO1 (stereo not shown) [I.1-241]
Oryza sativa; application rate 20 g/ha
  Oryza sativa (Efficacy in %): 10%
Triticum aestivum; application rate 5 g/ha
  Triticum aestivum (Efficacy in %): 20%
Digitaria sanguinalis
  Digitaria sanguinalis (Efficacy in %): 100%
Setaria viridis
  Setaria viridis (Efficacy in %): 100%
Matricaria inodora
  Matricaria inodora (Efficacy in %): 100%
Abutilon theophrasti
  Abutilon theophrasti (Efficacy in %): 100%
Polygonum convolvulus
  Polygonum convolvulus (Efficacy in %): 100%
Viola tricolor
  Viola tricolor (Efficacy in %): 100%
Stellaria media
  Stellaria media (Efficacy in %): 100%
Amaranthus retroflexus
  Amaranthus retroflexus (Efficacy in %): 100%
Veronica persica
  Veronica persica (Efficacy in %): 100%

## CC(Sc1cc(-n2c(=O)cc(C(F)(F)F)n(C)c2=O)c(F)cc1Cl)C(=O)NC1CCCOC1 (stereo not shown) [I.1-276]
Oryza sativa; application rate 5 g/ha
  Oryza sativa (Efficacy in %): 10%
Setaria viridis
  Setaria viridis (Efficacy in %): 100%
Matricaria inodora
  Matricaria inodora (Efficacy in %): 100%
Abutilon theophrasti
  Abutilon theophrasti (Efficacy in %): 100%
Polygonum convolvulus
  Polygonum convolvulus (Efficacy in %): 100%
Viola tricolor
  Viola tricolor (Efficacy in %): 100%
Stellaria media
  Stellaria media (Efficacy in %): 100%
Amaranthus retroflexus
  Amaranthus retroflexus (Efficacy in %): 100%
Veronica persica
  Veronica persica (Efficacy in %): 100%

## CCC(Sc1cc(-n2c(=O)cc(C(F)(F)F)n(C)c2=O)c(F)cc1Cl)C(=O)OCC1COC(C)C1 (stereo not shown) [I.2-73]
Oryza sativa; application rate 20 g/ha
  Oryza sativa (Efficacy in %): 10%
Setaria viridis
  Setaria viridis (Efficacy in %): 90%
Matricaria inodora
  Matricaria inodora (Efficacy in %): 100%
Abutilon theophrasti
  Abutilon theophrasti (Efficacy in %): 100%
Polygonum convolvulus
  Polygonum convolvulus (Efficacy in %): 100%
Viola tricolor
  Viola tricolor (Efficacy in %): 100%
Stellaria media
  Stellaria media (Efficacy in %): 100%
Amaranthus retroflexus
  Amaranthus retroflexus (Efficacy in %): 100%
Veronica persica
  Veronica persica (Efficacy in %): 100%

## CCC(Sc1cc(-n2c(=O)cc(C(F)(F)F)n(C)c2=O)c(F)cc1Cl)C(=O)OCC1CCCS1 (stereo not shown) [I.2-81]
Triticum aestivum; application rate 20 g/ha
  Triticum aestivum (Efficacy in %): 20%
Echinochloa crus-galli
  Echinochloa crus-galli (Efficacy in %): 100%
Pharbitis purpurea
  Pharbitis purpurea (Efficacy in %): 100%
Digitaria sanguinalis
  Digitaria sanguinalis (Efficacy in %): 100%
Setaria viridis
  Setaria viridis (Efficacy in %): 100%
Matricaria inodora
  Matricaria inodora (Efficacy in %): 100%
Abutilon theophrasti
  Abutilon theophrasti (Efficacy in %): 100%
Polygonum convolvulus
  Polygonum convolvulus (Efficacy in %): 100%
Viola tricolor
  Viola tricolor (Efficacy in %): 100%
Stellaria media
  Stellaria media (Efficacy in %): 100%
Amaranthus retroflexus
  Amaranthus retroflexus (Efficacy in %): 100%
Veronica persica
  Veronica persica (Efficacy in %): 100%
